# Source: patent US7855076B2, “Use of discoidin domain receptor 1 (DDR1) and agents that affect the DDR1/collagen pathway” (The United States of America as represented by the …, priority 2002, dated 2010)
# Legend:
# Assay type in all cases: cell-based, human
# THP-1 cells = test: Proliferation of PMA-treated THP-1 cells; details: DDR1b-overexpressing cells on collagen-coated plates, 10 nM PMA, 24 hour and 48 hour, compared with parental, mock or DDR1a cells
# Experimental: One hundred μl of cell suspension (5×10^6/ml) were plated in 96-well tissue culture plates either uncoated or collagen-coated, and incubated at 37° C. in the presence of 10 nM phorbol 12-myristate 13 acetate (PMA) for 24 or 48 hours (FIG. 4A). Data are shown as the mean ±SD of 10 wells. *p<0.01 by Bonferroni/Dun with One Way Factorial ANOVA. Twenty μl of each cell lysate were loaded and Western blotting was performed. The expression levels of DDR1 in DDR1a- or DDR1b-overexpressing THP-1 cells before and after treatment with PMA plus collagen are shown in FIG. 4C. […]
# One hundred μl of cell suspension (5×10^6/ml) were plated in 96-well tissue culture plates either collagen-coated or non-coated, and incubated at 37° C. in 5% CO2 humidified atmosphere in the presence of 10 nM PMA for 48 hours. Cell proliferation was measured by using the CellTiter 96 Aqueous Non-Radioactive Cell Proliferation Assay Kit (Promega, Madison, Wis.) according to the manufacture's protocol. Trypan-blue staining was also used to measure the number of live cells in each culture.
# p38 MAP kinase = test: Phosphorylation of p38 MAP kinase in PMA-treated THP-1 cells, Western blotting
# Experimental: Parental, mock, DDR1a- or DDR1b-overexpressing THP-1 cells were plated at 5×10^6/ml on uncoated tissue culture plates and stimulated with PMA (10 nM) for 24 hours, and then starved in RMPI 1640 without FCS for 10 hours. Subsequently cells were washed three times with PBS, and then incubated in the presence of 50 μg/ml collagen type I for various times.
# Ten million cells were lysed on ice for 20 minutes in a buffer containing 50 mM NaCl, 20 mM Tris-HCl, 50 mM sodium fluoride, 30 mM Na4P2O7, 5 mM EGTA, 3 mM sodium orthovanadate, 1% Triton X-100, 1 mg/ml leupeptin, 1 mM PMSF, 1 mg/ml aprotinin, 1 mg/ml pepstatinA and 100 μM sodium orthovanadate treated with H2O2. A lysis buffer containing 150 mM NaCl, 50 mM HEPES, 1% Triton-X 10% glycerol, 1 mM sodium fluoride, 1 mM EDTA, 2 mM sodium orthovanadate, 1 mg/ml leupeptin, 1 mM PMSF, 1 mg/ml aprotinin, 1 mg/ml pepstatinA and 100 μM sodium orthovanadate treated with H2O2, was also used for immunoprecipitation with anti-Shc Ab. The lysates were spun in a microcentrifuge for 20 minutes and the supernatants were collected. […]
# Eluted proteins were analyzed on 8% polyacrylamide gels by SDS-PAGE and transferred electrophoretically to nitrocellulose membranes at 150 mA for 1 hour by a semi-dry system. […] To detect phosphorylated or nonphosphorylated p38 MAP kinase or ATF-2, 20 μl of cell lysates were directly mixed with 20 μl of sample buffer and then analyzed.
# Downstream signaling molecules that may play a role in the up-regulation of HLA-DR in collagen-activated PMA-treated DDR1b-overexpressing cells were identified in the following manner. […] Phosphorylation of p38 MAP kinase was first detected 30 minutes after collagen activation of DDR1b-overexpressing cells and the level of phosphorylation increased thereafter. […] Phosphorylation of p38 MAP kinase was not detected in DDR1a-overexpressing cells up to 120 minutes. […] Phosphorylation of other members of the MAP kinase family, ERK1, ERK2, and JNK could not be detected in collagen-activated PMA-treated DDR1b-overexpressing cells. […]
# IκBα = test: IκB degradation in PMA-treated THP-1 cells, Western blotting; details: 10 nM PMA
# Experimental: Mock-transduced and DDR1b-overexpressing THP-1 cells were plated at 5×10^6cells/ml and treated with 10 nM PMA on collagen-coated plates for varous times. Ten million cells were lysed on ice for 20 minutes in a buffer containing 50 mM NaCl, 20 mM Tris-HCl, 50 mM sodium fluoride, 30 mM Na4P2O7, 5 mM EGTA, 3 mM sodium orthovanadate, 1% Triton X-100; 1 mg/ml leupeptin, 1 mM PMSF, 1 mg/ml aprotinin, 1 mg/ml pepstatin A and 100 μM sodium orthovanadate in […] lysates were spun and the supernatants were collected. Each sample was boiled in double-strength sample buffer for 10 minutes, electrophoresed on 10% polyacrylamide gels by SDS-PAGE, and transferred electrophoretically to nitrocellulose membranes at 150 mA for 1 hour by a semi-dry system. The membranes were incubated with mouse monoclonal anti-IκB antibody followed by sheep anti-mouse IgG coupled with horseradish peroxidase. Peroxidase activity was visualized by the Enhanced Chemiluminescence Detection System (Amersham).
substance,measurement,setting,value
collagen,decrease of proliferation,THP-1 cells,about 50%
same,phosphorylation of p38 MAP kinase,"p38 MAP kinase; DDR1a-overexpressing cells, up to 120 minutes",not detected
same,time phosphorylation of p38 MAP kinase first detected,p38 MAP kinase; DDR1b-overexpressing cells,30 min
same,amounts of IκBα,"IκBα; DDR1b-overexpressing cells, at 2 and 3 hours",decreased
same,level of IκBα,IκBα; mock-transduced cells,unchanged
